Data set [1] has as its system ST8814-Luc MPNST xenografts. Description: Orthotopic ST8814-Luc MPNST cell line-derived xenograft, bioluminescence imaging and IHC. Format: in vivo, NSG mice. Particulars: 4 weeks. As for the experimental part: All animal work was performed according to the protocols approved by the Institutional Animal Care and Use Committee at Nationwide Children's Hospital. For animal dosing, Roc was formulated in 30% hydroxypropyl-β-cyclodextrin (HPβCD; CTD, Inc.). To generate the orthotopic MPNST CDX model, ST8814-Luc cells were injected into the sciatic nerves of NSG mice (NOD.Cg-Prkdc^scid Il2rg^imlWjl/SzJ; The Jackson Laboratory), followed by bioluminescence imaging (BLI) to monitor tumor growth. Burns and Chang, Methods Mol Biol., 1427:59-72 (2016). Mice bearing established ST8814-Luc tumors, as defined by increasing bioluminescence signals over at least two time points, were randomized into three groups (n=10 mice) and treated with the predetermined maximum tolerated dose (MTD) of Roc at 4 mg/kg by IP or 1.2 mg/kg by oral gavage, or the vehicle HPβCD every other day. Tumor growth was measured weekly by BLI. Following 4 weeks of treatment, tumors were harvested for histological analysis.
Sections from Roc or vehicle-treated MPNST tumors were prepared and stained with hematoxylin and eosin (H&E) or immunostained for p-histone H3(Ser^10) (pH3; ab32107, Abeam) or CC3 (#9664, Cell Signaling) as previously described. Burns et al., Cancer Res., 73:792-803 (2013).
To evaluate the in vivo activity of Roc, the inventors treated NSG mice bearing luciferase-expressing ST8814-Luc tumors implanted in the sciatic nerve with Roc at the predetermined MTD (4 mg/kg by IP or 1.2 mg/kg oral gavage), or IPβCD as the vehicle control every other day.

For a further data set, the system named is osteosarcoma PDX. Kind of data set: Osteosarcoma PDX model (NCH-OS-7). The data set is classed as in vivo, NSG mouse. The note with it: 3 mg/kg IP every other day. The source says:
(§1) To generate PDX models, the Nationwide Children's Hospital Institutional Review Board approved the Human Subjects Protocol for the acquisition of surgically-removed tumor specimens from patients and informed patient consents were obtained. Shortly after resection, fresh tumor tissues with their histological types confirmed by a specialized pathologist were placed in Dulbecco's-modified Eagle (DME) medium (Invitrogen) and brought to the research laboratory. A piece of tumor fragment was implanted subcutaneously on the dorsal right flank area in an eight-to-ten week-old immunodeficient mouse under anesthesia. Tumors were allowed to grow until established, at which time the established PDX tumors were repeatedly passed from one animal to the next or cryopreserved. For Roc treatment, actively-growing PDXs for a Ewing sarcoma (NCH-EWS-2), an osteosarcoma (NCH—OS-7), and an alveolar rhabdomyosarcoma (NCH-ARMS-2) were excised and cut into 5-mm pieces. Each tumor piece was re-implanted into an NSG mouse and tumor growth was monitored. Once noted, the tumor sizes in the axial plane at its greatest dimension (L) and the orthogonal short dimension (S) were measured twice weekly using a Fowler Ultra-Cal Electronic Caliper. Approximated tumor volumes were calculated using the formula V=(L×S^2)/2. […]

Another data set relates to rhabdomyosarcoma PDX. Description: Alveolar rhabdomyosarcoma PDX model (NCH-ARMS-2). Format: in vivo, NSG mouse. The note with it: 3 mg/kg IP every other day.
Excerpt: as §1

The next data set has as its system STS26T cells. Description: Western blots of treated MPNST cells. Particulars: 1 or 2 IC50. The data set is classed as cell-based, human. The method, then: FIGS. 2A and 2B provide images showing that DDR and Roc increase caspase and PARP cleavage and elevated the levels of γH2AX while decreasing the expression of AKT and ERKs in MPNST cells. (A) Protein lysates prepared from STS26T cells treated for 3 days with 1 or 2 IC50 of DDR or Roc were analyzed by Western blots for the expression of various apoptosis-related proteins and mitogenic kinases AKT and ERK1/2. GAPDH served as a loading control. (B) Western blot analysis was performed on lysates from STS26T cells treated for 1 and 2 days with 1 or 2 IC50 of DDR for the expression of the DNA-damage response biomarker phosphorylated H2A.X (γH2A.X). As a positive control, lysates from HMS-97 human malignant schwannoma cells irradiated with 4 Grays (Gy) of X-ray were used.
Subconfluent cells were treated with the indicated doses of Roc or DDR for 24-72 hours and then harvested in cell lysis buffer (Cell Signaling Technology) containing 1 mM phenylmethylsufonylfluoride and protease inhibitor cocktail (Sigma-Aldrich). The protein content in cleared lysates was quantitated using the microBCA assay (ThermoFisher). Equal amounts of protein were run in sodium dodecyl sulfate-polyacrylamide gels and electrotransferred onto Immobilon-FL PVDF membranes (Millipore). The antibodies used were directed against: MDR1/ABCB1 (#13978), insulin-like growth factor-1 receptor β subunit (IGF-1Rβ; #9750), AKT (#9272), ERK1/2 (#4695), glyceraldehyde-3-phosphate dehydrogenase (GAPDH; #5174), caspase-3 (#9662), caspase-7 (#9492), cleaved caspase-7 (#9491), poly(ADP-ribose) polymerase (PARP; #9532), cleaved PARP (#5625), and phospho-histone H2A.X (pH2A.X[Ser′^39]; #9718; all from Cell Signaling Technology), NKX2.2 (sc-514161), LSD1 (sc-136174), and survivin (sc-17779; Santa Cruz Biotechnology), and FLI1 (ab15289) and cleaved caspase-3 (CC3; ab32042; Abeam). Protein bands were detected using IRDye® infrared fluorescent dye-labeled secondary antibodies and scanning on an Odyssey CLx imaging system (LI-COR Biosciences) using the appropriate fluorescent channel at a resolution of 84 μm.
To confirm induction of apoptosis in rocaglamide-treated MPNST cells, the inventors analyzed protein expression of several markers important for this process. […] A concomitant decrease in the amounts of intact caspases 3 and 7 and PARP was observed, consistent with the enhanced cleavage of these apoptotic markers and possibly due to direct effects of these rocaglamides on protein translation. Likewise, the levels of the pro-survival kinases AKT and ERK1/2 were diminished in rocaglamide-treated MPNST cells.

For data set [2] the following is noted: Kinghorn et al. 2016 and NCI Developmental Therapeutics Program study, same conditions; cited from earlier work.

As to `COc1ccc([C@@]23Oc4cc(OC)cc(OC)c4[C@]2(O)[C@H](O)[C@H](C(=O)N(C)C)[C@H]3c2ccccc2)cc1` [Roc, rocaglamide], the “increase of tumor bioluminescence over four weeks” value in data set [1] (1.2 mg/kg PO (oral gavage) every other day, vehicle ~17,000-fold) is ~470 fold. Also, the “reduction in tumor bioluminescence compared to controls” value in data set [1] (1.2 mg/kg oral gavage every other day) was > 95%. For the same compound, in data set [1] (4 mg/kg IP every other day), the “reduction in tumor luminescence compared to controls” value was > 99%. Moreover, in data set [1] (IP- or orally-delivered, IHC), the “phospho-histone H3 labeling in tumors vs vehicle” value is listed as “much higher prevalence”. Further, the “cleaved caspase-3 positive cells in tumors” value in data set [1] (Roc-treated tumors, IHC) is listed as “increased numbers”. Moreover, the “reduction of average tumor size compared to vehicle” value with osteosarcoma PDX is ~80%. Further, the “reduction of tumor growth” value with rhabdomyosarcoma PDX is ~70%. For the same compound, the “levels of γH2AX” value in the data set on STS26T cells (STS26T MPNST cells) is “elevated”. Moreover, in the data set with STS26T cells (STS26T cells, 3 days), the “cleavage of caspases 3 and 7 and PARP” value is reported as “increased cleavage”; the “expression of AKT and ERKs” value is “decreasing”. Besides, in data set [2], the “pulmonary toxicity in dogs” value is reported as “did not induce the toxicity”.

Source of the values: patent publication US12403121B2, “Anticancer rocaglamide derivatives” (priority 2018, dated 2025).
